# Patent US10919869B2, “Thiazole derivative and applications” (EAST CHINA UNIVERSITY OF SCIENCE AND TECHNOLOGY, priority 2016, dated 2021)
# Target: hsDHODH (Homo sapiens (Human), UniProt Q02127)
# Assay: Activity test at enzyme level: DHODH inhibition, DCIP absorbance at 600 nm
# Format: biochemical
# Conditions: pharmaceutically acceptable esters (prodrugs of A and B series), hsDHODH enzyme test; read-out: IC50
# Experimental: Culture and Purification of hsDHODH Protein
# The correctly sequenced recombinant plasmid pET-19b-DHODH was transformed into competent E. coli BL21 (DE3), and cultured on LB plate containing ampicillin. Colonies were randomly selected, inoculated into LB medium containing […], and incubate overnight at 37° C., 230 rpm. The cells were inoculated at a ratio of 1:200 in 500 mL of LB medium containing […] and expanded at 37° C., 230 rpm. When the OD value of the cells reached 0.8-1, IPTG was added into the medium to a final concentration of IPDG of 0.5 mM, and expression was induced overnight at 25° C. The induced cells were collected by centrifugation at […], 4° C., washed with deionized water, and centrifuged again to collect the bacterial pellet, which was stored at −80° C.
# Purification of protein: cells were re-suspended in lysis liquid containing 50 mM HEPES (pH 8.0), 0.15 M NaCl, 10 mM imidazole, 10% glycerol, 0.1% Triton X-100, and a small amount of soy protease inhibitor added. After re-suspended and mixed homogeneously, cells were ultrasonically disrupted. The disruption solution was centrifuged for 30 min, and the supernatant and precipitate were taken for protein electrophoresis to determine the form of protein. The supernatant was loaded onto a Ni-NTA column, and the pass-through liquid was collected, and then the resin was washed for 3-4 times with a lysis liquid containing 20 mM imidazole, and finally eluted with a lysis liquid containing 300 mM imidazole. After elution, protein solution was collected. 10 μL of the above protein sample was taken for SDS-PAGE electrophoresis to determine the content of target protein. Finally, the eluted protein solution is dialyzed in the dialysis liquid to remove imidazole, thereby obtaining a pure protein.
# Method for Testing Activities of Compounds at Enzyme Level
# Principles of activity test at enzyme level: firstly, dihydroorotate (DHO) is oxidatively dehydrogenated by DHODH to form orotic acid (Orotate, OA), accompanied by reduction of Flavin mononucleotide (FMN) into reduced flavin mononucleotide (FMNH2) by accepting 2H+ and 2e−, then coenzyme Q (CoQ) as hydrogen acceptor accepting electron and proton from FMNH2 is reduced into reduced coenzyme Q (CoQH2), reduced coenzyme Q transfers electrons to a chromogenic substrate, […] (DCIP), and finally DCIP was reduced. […] The degree to which the substrate DHO is oxidized can be judged based on the degree of decrease in absorbance. The degree of oxidation of the substrate DHO per unit time is the initial rate of the enzymatic reaction. Upon addition of a inhibitor, the initial rate of the enzymatic reaction is reduced.
# Substrate DHO was added to start the reaction with a DHO final concentration of 500 μM. The absorbance was read at 600 nm using a BioTek microplate reader and read every 30 s for 6 min. […] For calculating IC50 of a compound, Origin 8.0 was used to test the inhibition rate at least 8 concentrations.
# hsDHODH, sequence (Q02127 whole entry): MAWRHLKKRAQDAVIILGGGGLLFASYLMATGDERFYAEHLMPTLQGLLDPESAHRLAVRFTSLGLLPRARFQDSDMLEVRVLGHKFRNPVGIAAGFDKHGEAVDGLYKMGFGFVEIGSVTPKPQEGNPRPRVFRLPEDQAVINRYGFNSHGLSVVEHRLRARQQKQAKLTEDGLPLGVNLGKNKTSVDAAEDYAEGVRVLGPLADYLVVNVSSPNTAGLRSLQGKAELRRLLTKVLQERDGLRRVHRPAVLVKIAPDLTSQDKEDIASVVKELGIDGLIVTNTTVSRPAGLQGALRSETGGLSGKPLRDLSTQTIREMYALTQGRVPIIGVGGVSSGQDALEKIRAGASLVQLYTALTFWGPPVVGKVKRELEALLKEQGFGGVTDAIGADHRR
row,Structure (SMILES),IC50
1,"CCOC(=O)c1ccccc1/C=N/Nc1nc(-c2ccccc2Cl)cs1 [Compound A1, (E)-4-(2-chlorophenyl)-2-(2-ethoxyformylbenzylidenehydrazino)thiazole]",2.34 ± 0.0468 µM
2,"CCCOC(=O)c1ccccc1/C=N/Nc1nc(-c2ccccc2Cl)cs1 [Compound A2, (E)-4-(2-chlorophenyl)-2-(2-propoxyformylbenzylidenehydrazino)thiazole]",1.4 ± 0.0661 µM
3,"CC(C)OC(=O)c1ccccc1/C=N/Nc1nc(-c2ccccc2Cl)cs1 [Compound A3, (E)-4-(2-chlorophenyl)-2-(2-isopropoxyformylbenzylidenehydrazino)thiazole]",1.86 ± 0.0214 µM
4,"CCCCOC(=O)c1ccccc1/C=N/Nc1nc(-c2ccccc2Cl)cs1 [Compound A4, (E)-4-(2-chlorophenyl)-2-(2-butoxyformylbenzylidenehydrazino)thiazole]",3.53 ± 0.148 µM
5,"CCC(C)OC(=O)c1ccccc1/C=N/Nc1nc(-c2ccccc2Cl)cs1 (stereo not drawn) [Compound A5, (E)-4-(2-chlorophenyl)-2-(2-(2-butoxy)formylbenzylidenehydrazino)thiazole]",4.651 ± 0.0264 µM
6,"CCCCCOC(=O)c1ccccc1/C=N/Nc1nc(-c2ccccc2Cl)cs1 [Compound A6, (E)-4-(2-chlorophenyl)-2-(2-pentyloxyformylbenzylidenehydrazino)thiazole]",> 50 µM
7,"CCCCCCOC(=O)c1ccccc1/C=N/Nc1nc(-c2ccccc2Cl)cs1 [Compound A7, (E)-4-(2-chlorophenyl)-2-(2-hexyloxyformylbenzylidenehydrazino)thiazole]",> 50 µM
8,"O=C(OC1CCCCC1)c1ccccc1/C=N/Nc1nc(-c2ccccc2Cl)cs1 [Compound A8, (E)-4-(2-chlorophenyl)-2-(2-cyclohexyloxyformylbenzylidenehydrazino)thiazole]",> 50 µM
9,"CC(C)(C)C(=O)OCOC(=O)c1ccccc1/C=N/Nc1nc(-c2ccccc2Cl)cs1 [Compound A9, (Pivaloyloxy)methyl (E)-2-((2-(4-(2-chlorophenyl)thiazol-2-yl)hydrazono)methyl)benzoate]",> 50 µM
10,"CC(C)OC(=O)OCOC(=O)c1ccccc1/C=N/Nc1nc(-c2ccccc2Cl)cs1 [Compound A10, ((isopropoxycarbonyl)oxy)methyl (E)-2-((2-(4-(2-chlorophenyl)thiazol-2-yl)hydrazono)methyl)benzoate]",> 50 µM
11,"O=C(OCc1ccccc1)c1ccccc1/C=N/Nc1nc(-c2ccccc2Cl)cs1 [Compound A11, (E)-4-(2-chlorophenyl)-2-(2-benzyloxyformylbenzylidenehydrazino)thiazole]",> 50 µM
12,"CN(C)C(=O)c1ccccc1/C=N/Nc1nc(-c2ccccc2Cl)cs1 [Compound A13, (E)-4-(2-chlorophenyl)-2-((N,N-Dimethyl)formylbenzylidenehydrazino)thiazole]",> 50 µM
13,"CCOC(=O)c1ccccc1/C=N/N(C)c1nc(-c2ccccc2Cl)cs1 [Compound B1, (E)-4-(2-chlorophenyl)-2-[1-methyl-2-(2-ethoxyformylbenzylidene)hydrazino]thiazole]",2.79 ± 0.0465 µM
14,"CCCOC(=O)c1ccccc1/C=N/N(C)c1nc(-c2ccccc2Cl)cs1 [Compound B2, (E)-4-(2-chlorophenyl)-2-[1-methyl-2-(2-propoxyformylbenzylidene)hydrazino]thiazole]",1.96 ± 0.111 µM
15,"CCCCOC(=O)c1ccccc1/C=N/N(C)c1nc(-c2ccccc2Cl)cs1 [Compound B4, (E)-4-(2-chlorophenyl)-2-[1-methyl-2-(2-butoxyformylbenzylidene)hydrazino]thiazole]",> 50 µM
16,"CCC(C)OC(=O)c1ccccc1/C=N/N(C)c1nc(-c2ccccc2Cl)cs1 (stereo not drawn) [Compound B5, (E)-4-(2-chlorophenyl)-2-[1-methyl-2-(2-(2-butoxy)formylbenzylidene)hydrazino]thiazole]",> 50 µM
17,"CCCCCOC(=O)c1ccccc1/C=N/N(C)c1nc(-c2ccccc2Cl)cs1 [Compound B6, (E)-4-(2-chlorophenyl)-2-[1-methyl-2-(2-pentyloxyformylbenzylidene)hydrazino]thiazole]",> 50 µM
18,"CCCCCCOC(=O)c1ccccc1/C=N/N(C)c1nc(-c2ccccc2Cl)cs1 [Compound B7, (E)-4-(2-chlorophenyl)-2-[1-methyl-2-(2-hexyloxyformylbenzylidene)hydrazino]thiazole]",> 50 µM

# Same assay, conditions: purified DHODH 10 nM, DHO 500 μM, CoQ 100 μM, DCIP 120 μM; read-out: IC50 (μM) hsDHODH
row,Structure (SMILES),IC50
1,"CCCN(/N=C/c1ccccc1C(=O)O)c1nc(-c2ccccc2Cl)cs1 [Compound 3, (E)-4-(2-chlorophenyl)-2-[1-propyl-2-(2-carboxybenzylidene)hydrazino]thiazole]",0.0086 ± 0.0001 µM
2,"CCCC(C)N(/N=C/c1ccccc1C(=O)O)c1nc(-c2ccccc2Cl)cs1 (stereo not drawn) [Compound 6, (E)-4-(2-chlorophenyl)-2-[1-(2-amyl)-2-(2-carboxybenzylidene)hydrazino]thiazole]",0.0191 ± 0.0006 µM
3,"CN(/N=C/c1ccc(C(F)(F)F)cc1C(=O)O)c1nc(-c2ccccc2Cl)cs1 [Compound 8, (E)-4-(2-chlorophenyl)-2-[1-methyl-2-(4-trifluoromethyl-2-carboxybenzylidene)hydrazino]thiazole]",0.0868 ± 0.0009 µM
4,"Cc1ccc(/C=N/N(C)c2nc(-c3ccccc3Cl)cs2)c(C(=O)O)c1 [Compound 9, (E)-4-(2-chlorophenyl)-2-[1-methyl-2-(4-methyl-2-carboxybenzylidene)hydrazino]thiazole]",0.0084 ± 0.0001 µM
5,"CN(/N=C/c1ccc(F)cc1C(=O)O)c1nc(-c2ccccc2Cl)cs1 [Compound 10, (E)-4-(2-chlorophenyl)-2-[1-methyl-2-(2-carboxyl-4-fluorobenzylidene)hydrazino]thiazole]",0.0018 ± 0.0001 µM
6,"Cc1ccc(/C=N/N(C)c2nc(-c3ccccc3)c(C)s2)c(C(=O)O)c1 [Compound 11, (E)-5-methyl-4-phenyl-2-[1-methyl-2-(4-methyl-2-carboxybenzylidene)hydrazino]thiazole]",0.0136 ± 0.0005 µM
7,"Cc1sc(N(C)/N=C/c2ccccc2C(=O)O)nc1-c1ccccc1 [Compound 12, (E)-5-methyl-4-phenyl-2-[1-methyl-2-(2-carboxybenzylidene)hydrazino]thiazole]",0.0088 ± 0.0001 µM
8,"CCc1sc(N/N=C/c2ccccc2C(=O)O)nc1-c1ccccc1Cl [Compound 14, (E)-5-ethyl-4-(2-chlorophenyl)-2-(2-carboxylbenzylidenehydrazino)thiazole]",0.356 ± 0.0064 µM
9,"Cc1sc(N/N=C/c2ccccc2C(=O)O)nc1-c1ccccc1Cl [Compound 15, (E)-5-methyl-4-(2-chlorophenyl)-2-(2-carboxylbenzylidenehydrazino)thiazole]",0.0662 ± 0.0002 µM
10,"Cc1sc(N/N=C/c2ccccc2C(=O)O)nc1-c1ccccc1 [Compound 17, (E)-5-methyl-4-phenyl-2-(2-carboxylbenzylidenehydrazino)thiazole]",0.0811 ± 0.0001 µM
11,"CN(/N=C/c1ccccc1C(=O)O)c1nc(-c2cc(Cl)ccc2Cl)cs1 [Compound 19, (E)-4-(2,5-dichlorophenyl)-2-[1-methyl-2-(2-carboxybenzylidene)hydrazino]thiazole]",0.0282 µM
12,"CN(/N=C/c1ccccc1C(=O)O)c1nc(-c2ccccc2)cs1 [Compound 20, (E)-4-phenyl-2-[1-methyl-2-(2-carboxybenzylidene)hydrazino]thiazole]",0.0244 ± 0.0005 µM
13,"CN(/N=C/c1ccccc1C(=O)O)c1nc(-c2cccc(Cl)c2)cs1 [Compound 21, (E)-4-(3-chlorophenyl)-2-[1-methyl-2-(2-carboxybenzylidene)hydrazino]thiazole]",0.0106 µM
14,"CCCC(C)N(/N=C/c1ccccc1C(=O)O)c1nc(-c2ccccc2Cl)c(C)s1 (stereo not drawn) [Compound 22, (E)-5-methyl-4-(2-chlorophenyl)-2-[1-(2-amyl)-2-(2-carboxybenzylidene)hydrazino]thiazole]",0.0154 ± 0.0002 µM
15,CN(/N=C/c1cc(F)c(F)cc1C(=O)O)c1nc(-c2ccccc2Cl)cs1 [Compound 23],0.0044 µM
16,CN(/N=C/c1cc(O)c(F)cc1C(=O)O)c1nc(-c2ccccc2Cl)cs1 [Compound 24],0.0214 ± 0.0005 µM
17,CN(/N=C/c1cc(N)c(F)cc1C(=O)O)c1nc(-c2ccccc2Cl)cs1 [Compound 25],0.0316 ± 0.0001 µM
18,"O=C(O)c1c(F)cccc1/C=N/Nc1nc(-c2ccccc2Cl)cs1 [Compound 58, (E)-2-((2-(4-(2-chlorophenyl)thiazol-2-yl)hydrazono)methyl)-6-fluorobenzoic acid]",0.234 ± 0.0068 µM
